Results as given in patent US5840684A, “Glycopeptide antibiotic derivatives” (Eli Lilly and Company, priority 1995, dated 1998).
≈ marks a conversion by molar mass, not a printed value.

Legend:
[1] = tested on: vancomycin-susceptible enterococci; test: broth micro-dilution, mean geometric MIC; format: cell-based, Enterococcus faecium and Enterococcus faecalis; settings: enterococci, 24-hour incubation
[2] = tested on: Staphylococcus epidermidis 270; test: broth micro-dilution MIC; format: cell-based
Method: (§1) The formula I compounds have in vitro and in vivo activity against Gram-positive pathogenic bacteria. The MIC's were determined using a standard broth micro-dilution assay.

[3] = tested on: Staphylococcus haemolyticus 105; test: broth micro-dilution MIC; format: cell-based
Method: as §1

Entercoccus faecium 2041 = test: broth micro-dilution MIC; format: cell-based; settings: Entercoccus faecium 2041
Method: as §1

[4] = tested on: Staphylococcus haemolyticus 415; test: broth micro-dilution MIC; format: cell-based
Method: as §1

[5] = tested on: Enterococcus gallinarum 245; test: broth micro-dilution MIC; format: cell-based; settings: Enterococcus gallinarum 245
Method: as §1

Entercoccus faecium 180 = test: broth micro-dilution MIC; format: cell-based; settings: Entercoccus faecium 180
Method: as §1

[6] = tested on: vancomycin-resistant enterococci; test: broth micro-dilution, mean geometric MIC; format: cell-based, Enterococcus faecium and Enterococcus faecalis; settings: enterococci, 24-hour incubation
[7] = tested on: Entercoccus faecium 180-1; test: broth micro-dilution MIC; format: cell-based
Method: (§2) The MIC's were determined using a standard broth micro-dilution assay.

[8] = tested on: Staphylococcus aureus 446; test: broth micro-dilution MIC; format: cell-based
Method: as §2

[9] = tested on: Staphylococcus aureus 489; test: broth micro-dilution MIC; format: cell-based
Method: as §2

[10] = tested on: Staphylococcus aureus SA1199A; test: broth micro-dilution MIC; format: cell-based
Method: as §2

[11] = tested on: Staphylococcus aureus X778; test: broth micro-dilution MIC; format: cell-based
Method: as §2

[12] = tested on: Staphylococcus aureus 491; test: broth micro-dilution MIC; format: cell-based
Method: as §2

Entercoccus faecium 276 = test: broth micro-dilution MIC; format: cell-based
Method: as §2

[13] = tested on: Staphylococcus aureus X400; test: broth micro-dilution MIC; format: cell-based
Method: as §2

[14] = tested on: Staphylococcus aureus 447; test: broth micro-dilution MIC; format: cell-based
Method: as §2

[15] = tested on: Staphylococcus aureus S13E; format: cell-based
Method: as §2

[16] = tested on: Staphylococcus aureus SA1199B; format: cell-based
Method: as §2

[17] = tested on: Streptococcus pneumoniae P1; test: broth micro-dilution MIC; format: cell-based
Method: as §1

[18] = tested on: Streptococcus pyogenes C203; test: broth micro-dilution MIC; format: cell-based
Method: as §2

Row | SMILES | mean geometric MIC, Vancomycin Sensitive Strains [1] [µg/mL] | MIC [2] [µg/mL] | MIC [3] [µg/mL] | MIC (Entercoccus faecium 2041) [µg/mL] | MIC [4] | MIC [5] [µg/mL] | MIC (Entercoccus faecium 180) [µg/mL] | mean geometric MIC, Vancomycin Resistant Strains [6] [µg/mL] | MIC [7] | MIC [8] [µg/mL] | MIC [9] | MIC [10] | MIC [11] [µg/mL] | MIC [12] [µg/mL] | MIC (Entercoccus faecium 276) [µg/mL] | MIC [13] [µg/mL] | MIC [14] | MIC [15] [µg/mL] | MIC [16] [µg/mL] | MIC [17] [µg/mL] | other results
1 | CNC(CC(C)C)C(=O)NC1C(=O)NC(CC(N)=O)C(=O)NC2C(=O)NC3C(=O)NC(C(=O)NC(C(=O)O)c4cc(O)cc(O)c4-c4cc3ccc4O)C(OC3CC(C)(N)C(O)C(C)O3)c3ccc(cc3)Oc3cc2cc(c3OC2OC(CO)C(O)C(O)C2OC2CC(C)(NCc3ccc(Oc4ccccc4)cc3)C(O)C(C)O2)Oc2ccc(cc2)C1O (centres unmarked) [Compound 184] | 0.570 | 4 (≈ 2.34 µM) | 0.25 (≈ 0.147 µM) | 1 (≈ 0.586 µM) | ≤ .06 µg/mL | 4 (≈ 2.34 µM) | 8 (≈ 4.69 µM) | 27 | ≤ .06 µg/mL | 2 (≈ 1.17 µM) | ≤ .06 µg/mL | ≤ .06 µg/mL | 0.5 (≈ 0.293 µM) | 0.5 (≈ 0.293 µM) | 0.5 (≈ 0.293 µM) | 0.5 (≈ 0.293 µM) | ≤ .06 µg/mL | 1 (≈ 0.586 µM) | 1 (≈ 0.586 µM) | – | –
2 | CNC(CC(C)C)C(=O)NC1C(=O)NC(CC(N)=O)C(=O)NC2C(=O)NC3C(=O)NC(C(=O)NC(C(=O)O)c4cc(O)cc(O)c4-c4cc3ccc4O)C(OC3CC(C)(N)C(O)C(C)O3)c3ccc(c(Cl)c3)Oc3cc2cc(c3OC2OC(CO)C(O)C(O)C2OC2CC(C)(NCC3CCC4CCCC43)C(O)C(C)O2)Oc2ccc(cc2Cl)C1O (centres unmarked) [Compound 190] | 0.29 | 2 (≈ 1.17 µM) | 8 (≈ 4.67 µM) | ≤ 0.06 | 8 µg/mL (≈ 4.67 µM) | 8 (≈ 4.67 µM) | 8 (≈ 4.67 µM) | 6.7 | ≤ 0.06 µg/mL | – | 0.125 µg/mL (≈ 0.0729 µM) | ≤ 0.06 µg/mL | 0.125 (≈ 0.0729 µM) | 0.125 (≈ 0.0729 µM) | 0.125 (≈ 0.0729 µM) | ≤ 0.06 | 1 µg/mL (≈ 0.583 µM) | 0.125 (≈ 0.0729 µM) | 0.5 (≈ 0.292 µM) | ≤ 0.06 | MIC [18]: ≤ 0.06 µg/mL
3 | CCCCCCCC#Cc1ccc(CN[C@@]2(C)C[C@H](O[C@H]3[C@H](Oc4c5cc6cc4Oc4ccc(cc4Cl)[C@@H](O[C@H]4C[C@](C)(N)[C@@H](O)[C@H](C)O4)[C@@H]4NC(=O)[C@H](NC(=O)[C@@H]6NC(=O)[C@H](CC(N)=O)NC(=O)[C@H](NC(=O)[C@@H](CC(C)C)NC)[C@H](O)c6ccc(c(Cl)c6)O5)c5ccc(O)c(c5)-c5c(O)cc(O)cc5[C@@H](C(=O)O)NC4=O)O[C@H](CO)[C@@H](O)[C@@H]3O)O[C@@H](C)[C@@H]2O)cc1 [Compound 232] | 0.29 | 8 (≈ 4.43 µM) | 2 (≈ 1.11 µM) | 2 (≈ 1.11 µM) | 32 µg/mL (≈ 17.7 µM) | 32 (≈ 17.7 µM) | 0.5 (≈ 0.277 µM) | 0.71 | 1 µg/mL (≈ 0.554 µM) | 4 (≈ 2.22 µM) | 8 µg/mL (≈ 4.43 µM) | 2 µg/mL (≈ 1.11 µM) | 8 (≈ 4.43 µM) | 4 (≈ 2.22 µM) | 8 (≈ 4.43 µM) | 8 (≈ 4.43 µM) | – | 8 (≈ 4.43 µM) | 32 (≈ 17.7 µM) | ≤ 0.06 | MIC [18]: ≤ 0.06 µg/mL
4 | CC#CCCCCCCCCCCOc1ccc(CNC2(C)CC(OC3C(Oc4c5cc6cc4Oc4ccc(cc4Cl)C(OC4CC(C)(N)C(O)C(C)O4)C4NC(=O)C(NC(=O)C6NC(=O)C(CC(N)=O)NC(=O)C(NC(=O)C(CC(C)C)NC)C(O)c6ccc(c(Cl)c6)O5)c5ccc(O)c(c5)-c5c(O)cc(O)cc5C(C(=O)O)NC4=O)OC(CO)C(O)C3O)OC(C)C2O)cc1 (centres unmarked) [Compound 233] | 1.7 | 8 (≈ 4.26 µM) | – | 2 (≈ 1.07 µM) | – | – | 2 (≈ 1.07 µM) | 1.7 | 2 µg/mL (≈ 1.07 µM) | 4 (≈ 2.13 µM) | 4 µg/mL (≈ 2.13 µM) | 4 µg/mL (≈ 2.13 µM) | 8 (≈ 4.26 µM) | 8 (≈ 4.26 µM) | 8 (≈ 4.26 µM) | 8 (≈ 4.26 µM) | – | 8 (≈ 4.26 µM) | – | 0.5 (≈ 0.266 µM) | –
